Data reported in patent publication US6593342B1, “Pharmaceutical compositions comprising 2-quinolones” (Laboratoire L. Lafon, priority 1998, dated 2003).

Assays:
A549 = test: MTT test, A549; type: cell-based; settings: Homo sapiens, 10^−5 M, 72 hours, control = 100%, mean ± SEM, read-out: average optical density (MTT), percentage relative to control
Experimental: (§1) The influence of the compounds of formulae (I) and (Ia) on non-clonogenic cells was evaluated with the aid of the MTT calorimetric test.
(§2) The principle of the MTT test is based on the mitochondrial reduction, by the metabolically active live cells, of the yellow-colored product MTT (3-(4,5-dimethylthiazol-2-yl)-2,5-diphenyltetrazolium bromide) to a blue-colored product, formazan. The amount of formazan thus obtained is directly proportional to the amount of live cells present in the culture well(s). This amount of formazan is measured by spectrophotometry.
(§3) The cell lines are maintained as a monolayer culture at 37° C. in stoppered culture dishes containing MEM 25 MM HEPES (Minimum Essential Medium) base medium. This medium is suited to the growth of a range of various mammalian diploid or primary cells. This medium is then supplemented with:
(§4) an amount of 5% of FCS (Foetal Calf Serum) decomplemented at 56° C. for 1 hour,
(§5) 0.6 mg/ml of L-glutamine,
(§6) 200 μg/ml of streptomycin,
(§7) The 12 human cancer cell lines which were used were obtained from the American Type Culture Collection (ATCC, Rockville, Md., USA). These 12 cell lines are:
(§8) A549 (code ATCC: CCL-185) and A-427 (code ATCC: HTB-53) which are two non-small-cell lung cancers,
(§9) Experimentally: 100 μl of a cell suspension containing 20 000 to 50 000 (depending on the cell type used) cells/ml of culture medium are inoculated in 96-well flat-bottomed multi-well plates and are incubated at 37° C., under an atmosphere comprising 5% CO2 and 70% humidity. After incubation for 24 hours, the culture medium is replaced with 100 μl of fresh medium containing either the various test compounds at concentrations ranging from 10^−5 to 10^−10 M or the solvent used to dissolve the test products (control condition). After incubation for 72 hours under the above conditions, the culture medium is replaced with 100 μl of a yellowish solution of MTT dissolved at a rate of 1 mg/ml in RPMI 1640. The microplates are reincubated for 3 hours at 37° C. and are then centrifuged for 10 minutes at 400×g. The yellowish solution of MTT is removed and the blue formazan crystals formed in the cell are dissolved in 100 μl of DMSO. The microplates are then shaken for 5 minutes. The intensity of the resulting blue coloration, and thus of the conversion of the yellow product MTT into blue formazan by the cells that are still alive at the end of the experiment, is quantified by spectrophotometry using a Dynatech Immunoassay System machine at wavelengths of 570 nm and 630 nm corresponding, respectively, to the maximum absorption wavelengths of formazan and to the background noise. Software incorporated in the spectrophotometer calculates the average optical density values and the standard deviation (SD) and standard error of mean (SEM) values.
(§10) By way of example, the results of the average optical density, expressed as a percentage relative to the average optical density measured under the control condition (set equal to 100%), obtained at a concentration of 10^−5 M on the 12 abovementioned tumor cell lines are given in Table II.

U-87MG = test: MTT test, U-87MG; type: cell-based; settings: Homo sapiens, 10^−5 M, 72 hours, control = 100%, mean ± SEM, read-out: average optical density (MTT), percentage relative to control
Experimental: as §1, §2, §3, §4, §5, §6, §7
(§11) U-373MG (code ATCC: HTB-17) and U-87MG (code ATCC: HTB-14) which are two glioblastomas,
as §9, §10

T24 = test: MTT test, T24; type: cell-based; settings: Homo sapiens, T-24, 10^−5 M, 72 hours, control = 100%, mean ± SEM, read-out: average optical density (MTT), percentage relative to control
Experimental: as §1, §2, §3, §4, §5, §6, §7
(§12) J82 (code ATCC: HTB-1) and T24 (code ATCC: HTB-4) which are two bladder cancers,
as §9, §10

HCT-15 = test: MTT test, HCT-15; type: cell-based; settings: Homo sapiens, 10^−5 M, 72 hours, control = 100%, mean ± SEM, read-out: average optical density (MTT), percentage relative to control
Experimental: as §1, §2, §3, §4, §5, §6, §7
(§13) HTC-15 (code ATCC: CCL-225) and LoVo (code ATCC: CCL-229) which are two colorectal cancers,
as §9, §10

MCF7 = test: MTT test, MCF7; type: cell-based; settings: Homo sapiens, 10^−5 M, 72 hours, control = 100%, mean ± SEM, read-out: average optical density (MTT), percentage relative to control
Experimental: as §1, §2, §3, §4, §5, §6, §7
(§14) T-47D (code ATCC: HTB-133) and MCF7 (code ATCC: HTB-22) which are two breast cancers,
as §9, §10

U-373MG = test: MTT test, U-373MG; type: cell-based; settings: Homo sapiens, U373 MG, 10^−5 M, 72 hours, control = 100%, mean ± SEM, read-out: average optical density (MTT), percentage relative to control
Experimental: as §1, §2, §3, §4, §5, §6, §7, §11, §9, §10

[1] = Determination of the maximum tolerated dose (MTD); settings: mouse, in vivo, ip; B6D2F1/Jico mice; single intraperitoneal administration, 2.5 to 160 mg/kg; survival over 14 days
Experimental: 3.—Determination of the Maximum Tolerated Dose (MTD):
The evaluation of the maximum tolerated dose was carried out on 4- to 6-week-old B6D2F1/Jico mice. The compounds were administered intraperitoneally at increasing doses graduating from 2.5 to 160 mg/kg. The value of the MTD (expressed in mg/kg) is determined from the observation of the survival rate of the animals over a 14-day period after a single administration of the product under consideration. The weight change of the animals is also monitored during this period. When the value of the MTD is greater than 160 mg/kg, the MTD value is likened to 160 mg/kg by default.
The results of the estimation of the maximum tolerated dose (MTD) are collated in the following table: […]

PC-3 = test: MTT test, PC-3; type: cell-based; settings: Homo sapiens, 10^−5 M, 72 hours, control = 100%, mean ± SEM, read-out: average optical density (MTT), percentage relative to control
Experimental: as §1, §2, §3, §4, §5, §6, §7
PC-3 (code ATCC: CRL-1435) which is a prostate cancer.
as §9, §10

J82 = test: MTT test, J82; type: cell-based; settings: Homo sapiens, 10^−5 M, 72 hours, control = 100%, mean ± SEM, read-out: average optical density (MTT), percentage relative to control
Experimental: as §1, §2, §3, §4, §5, §6, §7, §12, §9, §10

LoVo = test: MTT test, LoVo; type: cell-based; settings: Homo sapiens, 10^−5 M, 72 hours, control = 100%, mean ± SEM, read-out: average optical density (MTT), percentage relative to control
Experimental: as §1, §2, §3, §4, §5, §6, §7, §13, §9, §10

SW1088 = test: MTT test, SW1088; type: cell-based; settings: Homo sapiens, 10^−5 M, 72 hours, control = 100%, mean ± SEM, read-out: average optical density (MTT), percentage relative to control
Experimental: as §1, §2, §3, §4, §5, §6, §7
SW1088 (code ATCC: HTB-12) which is an astrocytoma,
as §9, §10

A-427 = test: MTT test, A-427; type: cell-based; settings: Homo sapiens, 10^−5 M, 72 hours, control = 100%, mean ± SEM, read-out: average optical density (MTT), percentage relative to control
Experimental: as §1, §2, §3, §4, §5, §6, §7, §8, §9, §10

T-47D = test: MTT test, T-47D; type: cell-based; settings: Homo sapiens, T47D, 10^−5 M, 72 hours, control = 100%, mean ± SEM, read-out: average optical density (MTT), percentage relative to control
Experimental: as §1, §2, §3, §4, §5, §6, §7, §14, §9, §10

| SMILES | viability at 10 µM (A549) [%] | viability at 10 µM (U-87MG) [%] | viability at 10 µM (T24) [%] | viability at 10 µM (HCT-15) [%] | viability at 10 µM (MCF7) [%] | viability at 10 µM (U-373MG) [%] | MTD at 14 day [1] [mg/kg] | viability at 10 µM (PC-3) [%] | viability at 10 µM (J82) [%] | viability at 10 µM (LoVo) [%] | viability at 10 µM (SW1088) [%] | viability at 10 µM (A-427) [%] | viability at 10 µM (T-47D) [%] |
| --- | --- | --- | --- | --- | --- | --- | --- | --- | --- | --- | --- | --- | --- |
| COc1ccc(-c2cc3c(OC)cc(OC)c4c3n(c2=O)CCC4=O)cc1 [CRL8285, 8,10-Dimethoxy-6-(4-methoxyphenyl)-2,3-dihydro-1H,5H-pyrido[3,2,1-ij]quinoline-1,5-dione] | 92.5 ± 3.5 | 85.1 ± 2 | 72.7 ± 1.8 | 90.6 ± 1.6 | 83.7 ± 2.3 | 96.9 ± 1.6 | > 160 | 93.4 ± 1.8 | 68.7 ± 2.9 | 103 ± 3.1 | 89.8 ± 2.7 | 78.4 ± 1.6 | 89.3 ± 1.7 |
| Oc1ccc(-c2cc3c(O)cc(O)cc3nc2O)cc1 [CRL8311, 5,7-Dihydroxy-3-(4-hydroxyphenyl)-1,2-dihydro-2-quinolinone] | 106 ± 2.4 | 91.8 ± 1.3 | 90 ± 1.9 | 101 ± 3.6 | 98.8 ± 2.3 | 113 ± 2.5 | > 160 | 122 ± 3.5 | 127 ± 1.9 | 77.9 ± 1.7 | 80.7 ± 1.7 | 89.7 ± 2 | 108 ± 6.6 |
| CCOC(=O)Cn1c(=O)c(-c2ccc(OC)cc2)cc2c(OC)cc(OC)cc21 [CRL8314] | 85.2 ± 1.4 | 74.5 ± 3.4 | 61.9 ± 2.5 | 116 ± 4.4 | 72.2 ± 2 | 89.2 ± 2 | > 160 | 88.6 ± 1.4 | 33.2 ± 1.2 | 82.9 ± 2.5 | 85.4 ± 2.5 | 104 ± 3.1 | 114 ± 2.3 |
| COc1ccc(-c2cc3c(OC)cc(OC)cc3n(CC(=O)O)c2=O)cc1 [CRL8317, 2-[5,7-Dimethoxy-3-(4-methoxyphenyl)-2-oxo-1,2-dihydro-1-quinolinyl]acetic Acid] | 94.7 ± 2.2 | 91 ± 4.1 | 91.4 ± 4.3 | 104 ± 2.6 | 96 ± 2.1 | 91.2 ± 1.9 | > 160 | 97.9 ± 1.1 | 83.6 ± 1.8 | 86.8 ± 2.8 | 103 ± 2.3 | 91.3 ± 2 | 95 ± 2.5 |
| COC(=O)CCn1c(=O)c(-c2ccc(OC)cc2)cc2c(OC)cc(OC)cc21 [CRL8318] | 86.6 ± 2.5 | 78.1 ± 2.4 | 81.8 ± 1.4 | 113 ± 1.7 | 105 ± 2.4 | 89.9 ± 1.3 | > 160 | 79.2 ± 2.8 | 72.8 ± 1.2 | 75.2 ± 2.3 | 75.2 ± 3 | 74 ± 3 | 100 ± 3.9 |
| COc1ccc(-c2cc3c(OC)cc(OC)cc3n(CCC(=O)O)c2=O)cc1 [CRL8319, 3-[5,7-Dimethoxy-3-(4-methoxyphenyl)-2-oxo-1,2-dihydro-1-quinolinyl]propanoic Acid] | 97.3 ± 1.2 | 115 ± 2.9 | 89.6 ± 2.1 | 96.7 ± 1.6 | 102 ± 2 | 102 ± 1.5 | > 160 | 90.7 ± 3.6 | 80.9 ± 1 | 79.7 ± 2.7 | 89.8 ± 2.7 | 79.1 ± 2.5 | 104 ± 2.5 |
| Cn1c(=O)c(-c2ccc(O)cc2)cc2c(O)cc(O)cc21 [CRL8321, 5,7-Dihydroxy-3-(4-hydroxyphenyl)-1-methyl-1,2-dihydro-2-quinolinone] | 99.4 ± 1.3 | 96.5 ± 1.2 | 103 ± 1.7 | 118 ± 1.6 | 96.6 ± 0.9 | 97.1 ± 2.4 | > 160 | 102 ± 3.1 | 88.6 ± 0.9 | 108 ± 1.1 | 97.2 ± 1.8 | 107 ± 1.4 | 91.5 ± 1.2 |
| COc1cc(OC)c2cc(-c3ccccc3)c(O)nc2c1 [CRL8330, 5,7-Dimethoxy-3-phenyl-1,2-dihydro-2-quinolinone] | 76.3 ± 2.4 | 86.6 ± 0.7 | 57.4 ± 2.3 | 94.7 ± 2.1 | 87.2 ± 3 | 75.5 ± 3.7 | > 160 | 48.5 ± 2.1 | 70.5 ± 2.4 | 59.9 ± 4.2 | 73.3 ± 1.8 | 59.8 ± 1 | 77.6 ± 3 |
